Assay [1] deals with GH release. In words: In vivo endocrine activity, GH release after subcutaneous administration (Table 9). Conditions: rat; for Stimulation of growth hormone levels after subcutaneous administration (in words): s.c.; for GH releasing potency relative to JI-38 (=1): subcutaneous (s.c.) injection. The protocol:
Subcutaneous Administration. Adult male rats were used and anesthetized with pentobarbital (6 mg/100 g, b.w.), by i.p. injection. […] Blood samples were taken from the jugular vein 5, 15 and/or 30 minutes after the injection. The blood samples were centrifuged, plasma was removed and the GH level was measured byELISA. The results are summarized in terms of potency in Table 9.

The test system of assay [2] is GH release. In words: GH releasing potency in vivo, intravenous administration (Example 14, Table 13). Conditions: i.v.; for Serum GH level at selected time after injection (ng/ml), 0 min / Serum GH level at selected time after injection (ng/ml), 5 min / Serum GH level at selected time after injection (ng/ml), 15 min: dose 1 μg/kg, mean ± SEM. More on the design: species or system rat. Here is the method:
Male Sprague-Dawley rats, weighing 200-250 g, were purchased from Charles River Laboratory (Wilmington, Mass.) and used for experiments. All animal procedures were approved by the Veterans Affairs Animal Care and Use Committee and were conducted in accordance with additional institutional guidelines as well. Briefly, groups of 5-6 animals were used in each experiment. The rats were anesthetized with 50 mg/kg of sodium pentobarbital (Nembutal, Lundbeck Inc., Deerfield, Ill.). Twenty min after inducing anesthesia, GHRH(1-29)NH2, JI-38, or new analogs were injected into the animals intravenously (i.v.) or subcutaneously (s.c.). The peptides were dissolved in 0.01 M acetic acid to get 1 μg/μl stock solution, and then diluted with 5% mannitol. Control rats received 5% mannitol only. Blood samples were collected from the jugular vein at selected times and were used for serum preparation. Concentrations of GH in rat sera were determined by ELISA. The relative potencies of tested peptides were calculated using GHRH(1-29)NH2 and JI-38 for comparison, whose potency was defined as 1. The equivalent dosage of GHRH(1-29)NH2 to reach the same level of serum growth hormone release after injection of the specific tested peptide was determined from a GHRH(1-29)NH2 standard curve using Origin 6.0 software. […] Serum GH was determined using the rat Growth Hormone ELISA kit (ALPCO Diagnostics, Mill Valley, Calif.) according to the manufacturer's instruction. Absorbance at 405 nm was measured by a Victor 3 Multi-label Counter (Perkin-Elmer, Waltham, Md.).

The test system of assay [3] is myocardial infarction (Fisher-344 rats). In words: Serial echocardiography after MI, compared to JI-38 (Example 15, Table 15). Format: in vivo, rat. The arrangement: key to LVEDD: Left Ventricular End Diastolic Diameter / LVESD: Left Ventricular End Systolic Diameter / VD: Ventricular Diastole / VS: Ventricular Systole / EF: Ejection Fraction / FS: Fraction Shortening: ↓: downward arrow denotes lower than JI-38; ↑: upward arrow denotes greater than JI-38; =denotes same as JI-38; ⬇⬇: double arrow denotes greater effect; ⬆⬆: double arrow denotes greater effect. The settings on record: in comparison to JI-38. The method in brief:
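Female 6-month-old Fisher-344 rats with permanent left coronary artery ligation received placebo, JI-38 or GHRH agonists subcutaneously twice daily from 2 h post-surgery (10 per group). Under 2% isoflurane, M-mode LVEDD, LVESD and FS plus long-axis EF were measured at baseline, 2 days, 1, 2 and 4 weeks.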

Non-standard residues stand in square brackets, D forms with d. Residues, ends and D or L forms follow the SMILES beside them. *: point of attachment. Phe(F5) = N[C@@H](Cc1c(F)c(F)c(F)c(F)c1F)C(=O)O; Desaminotyrosyl = O=C(CCc1ccc(O)cc1)*; NMeY = CN[C@@H](Cc1ccc(O)cc1)C(=O)O; Nle = CCCC[C@H](N)C(=O)O; Orn = NCCC[C@H](N)C(=O)O; Abu = CC[C@H](N)C(=O)O; GABA = NCCCC(=O)O

As to `CCCC[C@H](NC(=O)[C@@H](NC(=O)[C@H](CC(=O)O)NC(=O)[C@H](CCC(N)=O)NC(=O)[C@H](CC(C)C)NC(=O)[C@H](CC(C)C)NC(=O)[C@H](CCCN)NC(=O)[C@H](CCCNC(=N)N)NC(=O)[C@H](C)NC(=O)[C@H](CO)NC(=O)[C@H](CC(C)C)NC(=O)[C@H](CCC(N)=O)NC(=O)[C@H](CC)NC(=O)[C@H](CC(C)C)NC(=O)[C@@H](NC(=O)[C@H](CCCN)NC(=O)[C@H](CCCNC(=N)N)NC(=O)[C@H](Cc1ccc(O)cc1)NC(=O)[C@H](CO)NC(=O)[C@H](CCC(N)=O)NC(=O)[C@@H](NC(=O)[C@H](Cc1ccccc1)NC(=O)[C@@H](NC(=O)[C@H](C)NC(=O)[C@H](CC(=O)O)NC(=O)[C@@H](C)NC(=O)[C@H](Cc1ccc(O)cc1)NC)[C@@H](C)CC)[C@@H](C)O)C(C)C)[C@@H](C)CC)C(=O)N[C@@H](CC(=O)O)C(=O)N[C@@H](CCCNC(=N)N)C(=O)NC` [Peptide P-27403, [N—Me-Tyr^1, D-Ala^2, Gln^8, Orn^12, Abu^15, Orn^21, Nle^27, Asp^28]hGHRH(1-29)NH—CH3] (H-[NMeY][dA]DAIFTQSYR[Orn]VL[Abu]QLSAR[Orn]LLQDI[Nle]DR-NHMe), in the assay with GH release [1], the “Stimulation of growth hormone levels after subcutaneous administration (in words)” value is listed as “stimulated greater growth hormone levels than hGHRH or JI-38”. Besides, the “GH releasing potency relative to JI-38 (=1)” value in the assay on GH release [1] (15 min after) stood at 3.60. The “GH releasing potency relative to JI-38 (=1)” value with GH release [1] (30 min after) turned out to be 2.57. The “Relative potency, 5 min” value with GH release [2] (5 min, JI-38 = 1) turned out to be 1.19. In addition, the “Relative potency, 15 min” value with GH release [2] (15 min, JI-38 = 1) was 1.35. The “Serum GH level at selected time after injection (ng/ml), 0 min” value with GH release [2] amounted to 47.7 ± 4.1 ng/mL. Besides, in the assay on GH release [2] (5 min), the “Serum GH level at selected time after injection (ng/ml), 5 min” value stood at 642 ± 29.7 ng/mL. Moreover, in the assay with GH release [2] (15 min), the “Serum GH level at selected time after injection (ng/ml), 15 min” value was determined as 268 ± 21.1 ng/mL. Further, in assay [3], the “EF: Ejection Fraction” value is “=”, the “FS: Fraction Shortening” value is “↓”, the “LVEDD: Left Ventricular End Diastolic Diameter” value was “↑” and the “LVESD: Left Ventricular End Systolic Diameter” value was “↑”. Also, in assay [3], the “VD: Ventricular Diastole” value is listed as “↑” and the “VS: Ventricular Systole” value was “↑”.
Take `CCCC[C@H](NC(=O)[C@@H](NC(=O)[C@H](CC(=O)O)NC(=O)[C@H](CCC(N)=O)NC(=O)[C@H](CC(C)C)NC(=O)[C@H](CC(C)C)NC(=O)[C@H](CCCN)NC(=O)[C@H](CCCNC(=N)N)NC(=O)[C@H](C)NC(=O)[C@H](CO)NC(=O)[C@H](CC(C)C)NC(=O)[C@H](CCC(N)=O)NC(=O)[C@H](CC)NC(=O)[C@H](CC(C)C)NC(=O)[C@@H](NC(=O)[C@H](CCCN)NC(=O)[C@H](CCCNC(=N)N)NC(=O)[C@H](Cc1ccc(O)cc1)NC(=O)[C@H](CO)NC(=O)[C@H](CC(N)=O)NC(=O)[C@@H](NC(=O)[C@H](Cc1c(F)c(F)c(F)c(F)c1F)NC(=O)[C@@H](NC(=O)[C@H](C)NC(=O)[C@H](CC(=O)O)NC(=O)[C@@H](C)NC(=O)CCc1ccc(O)cc1)[C@@H](C)CC)[C@@H](C)O)C(C)C)[C@@H](C)CC)C(=O)N[C@@H](CO)C(=O)N[C@@H](CCCNC(=N)N)C(=O)NCCCC(N)=O` [Peptide P-25502, [Dat^1, D-Ala^2, Fpa5^6, Orn^12, Abu^15, Orn^21, Nle^27, Gab^30]hGHRH(1-30)NH2] (Desaminotyrosyl-[dA]DAI[Phe(F5)]TNSYR[Orn]VL[Abu]QLSAR[Orn]LLQDI[Nle]SR[GABA]-NH2): the “Stimulation of growth hormone levels after subcutaneous administration (in words)” value in the assay on GH release [1] was “stimulated greater growth hormone levels than hGHRH or JI-38”. In addition, in the assay on GH release [1] (15 min after), the “GH releasing potency relative to JI-38 (=1)” value was found to be 1.10. Further, the “GH releasing potency relative to JI-38 (=1)” value with GH release [1] (30 min after) is listed as 0.94. Moreover, in the assay with GH release [2], the “GH-releasing potency after intravenous administration (in words)” value is reported as “highest potency for GH release” and the “Serum GH level at selected time after injection (ng/ml), 0 min” value was found to be 59.9 ± 15.9 ng/mL. Moreover, the “Serum GH level at selected time after injection (ng/ml), 5 min” value in the assay on GH release [2] (5 min) stood at 1253 ± 185 ng/mL. Moreover, the “Serum GH level at selected time after injection (ng/ml), 15 min” value in the assay with GH release [2] (15 min) was 575 ± 20.9 ng/mL. In assay [3], the “EF: Ejection Fraction” value is reported as “=”, the “FS: Fraction Shortening” value is “=”, the “LVEDD: Left Ventricular End Diastolic Diameter” value is given as “=” and the “LVESD: Left Ventricular End Systolic Diameter” value is “=”. Further, in assay [3], the “VD: Ventricular Diastole” value is “↑” and the “VS: Ventricular Systole” value was “↑”.

Values taken from patent US10555987B2, “GHRH agonists for the treatment of ischemic disorders” (UNIVERSITY OF MIAMI, priority 2012, dated 2020).
